Results taken from PubChem BioAssay (NCI).
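Assay format: 96-well plates, 48-hour exposure. GI50 is the concentration that inhibits growth by half. TGI: total growth inhibition.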

Tests used:
Experiment in all cases: NCI anticancer screen, dose series, 48 h
[1] = test system: MDA-MB-231 breast
[2] = test system: HCT-15 colon
[3] = test system: NCI/ADR-RES ovarian
[4] = test system: SNB-75 CNS
[5] = test system: BT-549 breast
[6] = test system: MCF7 breast
[7] = test system: CAKI-1 renal
[8] = test system: MDA-MB-435
[9] = test system: HT29 colon
[10] = test system: RPMI-8226 leukemia
[11] = test system: LOX IMVI melanoma
[12] = test system: HCC-2998 colon
[13] = test system: T-47D breast
[14] = test system: HL-60(TB) leukemia
[15] = test system: 786-0 renal
[16] = test system: UO-31 renal
[17] = test system: MALME-3M melanoma
[18] = test system: SK-MEL-28 melanoma
[19] = test system: SNB-19 CNS
[20] = test system: SK-OV-3 ovarian
[21] = test system: A498 renal
[22] = test system: NCI-H460 lung
[23] = test system: UACC-62 melanoma
[24] = test system: IGROV1 ovarian
[25] = test system: OVCAR-5 ovarian
[26] = test system: OVCAR-4 ovarian
[27] = test system: SF-295 CNS
[28] = test system: SR leukemia
[29] = test system: HCT-116 colon
[30] = test system: NCI-H23 lung
[31] = test system: K-562 leukemia
[32] = test system: KM12 colon
[33] = test system: COLO 205 colon
[34] = test system: RXF 393 renal
[35] = test system: PC-3 prostate
[36] = test system: ACHN renal
[37] = test system: SF-268 CNS
[38] = test system: EKVX NSCLC
[39] = test system: SK-MEL-5 melanoma
[40] = test system: A549 NSCLC
[41] = test system: OVCAR-8 ovarian
[42] = test system: SF-539 CNS
[43] = test system: M14 melanoma
[44] = test system: DU-145 prostate
[45] = test system: HS 578T breast
[46] = test system: MOLT-4 leukemia
[47] = test system: TK-10 renal
[48] = test system: UACC-257 melanoma
[49] = test system: SW-620 colon
[50] = test system: NCI-H226 lung
[51] = test system: NCI-H522 lung
[52] = test system: HOP-92 NSCLC
[53] = test system: U251 CNS
[54] = test system: HOP-62 NSCLC
[55] = test system: CCRF-CEM leukemia
[56] = test system: SN12C renal

## C#C[C@]1(O)CC[C@H]2[C@@H]3CC=C4c5sc(NCc6ccccc6)nc5CC[C@]4(C)[C@H]3CC[C@@]21C
[1]
  GI50: 2.64 µM
  TGI: 7.07 µM
[2]
  GI50: 1.7 µM
  TGI: 4.15 µM
[3]
  GI50: 3.87 µM
  TGI: 43.9 µM
[4]
  GI50: 1.89 µM
[5]
  GI50: 2.82 µM
  TGI: 7.27 µM
[6]
  GI50: 3.31 µM
  TGI: 10 µM
[7]
  GI50: 2.59 µM
  TGI: 8.04 µM
[8]
  GI50: 3.73 µM
  TGI: 18.7 µM
[9]
  GI50: 1.68 µM
  TGI: 3.54 µM
[10]
  GI50: 1.65 µM
  TGI: 4.53 µM
[11]
  GI50: 2.19 µM
  TGI: 4.93 µM
[12]
  GI50: 4.05 µM
  TGI: 14.1 µM
[13]
  GI50: 2.76 µM
  TGI: 16.6 µM
[14]
  GI50: 3.01 µM
  TGI: 9.19 µM
[15]
  GI50: 1.73 µM
  TGI: 3.47 µM
[16]
  GI50: 2.21 µM
  TGI: 5.41 µM
[17]
  GI50: 2.14 µM
  TGI: 5.38 µM
[18]
  GI50: 2.31 µM
  TGI: 7.2 µM
[19]
  GI50: 4.01 µM
  TGI: 18 µM
[20]
  GI50: 2.08 µM
  TGI: 4.41 µM
[21]
  GI50: 1.72 µM
  TGI: 4.24 µM
[22]
  GI50: 4.66 µM
  TGI: 16.6 µM
[23]
  GI50: 1.97 µM
  TGI: 4.49 µM
[24]
  GI50: 5.83 µM
  TGI: 23.3 µM
[25]
  GI50: 4.55 µM
  TGI: 17.6 µM
[26]
  GI50: 8.48 µM
  TGI: 32.9 µM
[27]
  GI50: 1.94 µM
  TGI: 4.08 µM
[28]
  GI50: 3.16 µM
  TGI: 29.6 µM
[29]
  GI50: 3.37 µM
  TGI: 11.5 µM
[30]
  GI50: 4.4 µM
  TGI: 20.8 µM
[31]
  GI50: 3.23 µM
  TGI: > 100 µM
[32]
  GI50: 3.18 µM
  TGI: 10.8 µM
[33]
  GI50: 1.92 µM
  TGI: 3.62 µM
[34]
  GI50: 1.23 µM
  TGI: 3.17 µM
[35]
  GI50: 2.29 µM
  TGI: 6.77 µM
[36]
  GI50: 3.92 µM
  TGI: 15.9 µM
[37]
  GI50: 3.85 µM
  TGI: 16.4 µM
[38]
  GI50: 4.16 µM
  TGI: 16.3 µM
[39]
  GI50: 2.91 µM
  TGI: 8.8 µM
[40]
  GI50: 3.48 µM
  TGI: 13.1 µM
[41]
  GI50: 3.78 µM
  TGI: 14.4 µM
[42]
  GI50: 1.4 µM
  TGI: 3.18 µM
[43]
  GI50: 2.94 µM
  TGI: 10.1 µM
[44]
  GI50: 7.54 µM
  TGI: 40.5 µM
[45]
  GI50: 2.02 µM
  TGI: 6.42 µM
[46]
  GI50: 2.66 µM
  TGI: 8.69 µM
[47]
  GI50: 5.48 µM
  TGI: 18.5 µM
[48]
  GI50: 1.82 µM
  TGI: 3.72 µM
[49]
  GI50: 2.22 µM
  TGI: 4.68 µM
[50]
  GI50: 11.3 µM
  TGI: 37.1 µM
[51]
  GI50: 2.62 µM
  TGI: 8.35 µM
[52]
  GI50: 1.56 µM
  TGI: 7.34 µM
[53]
  GI50: 1.8 µM
  TGI: 5.8 µM
[54]
  GI50: 2.05 µM
  TGI: 4.94 µM
[55]
  GI50: 2.94 µM
  TGI: 9.49 µM
[56]
  GI50: 3.52 µM
  TGI: 16.7 µM
